Data taken from US4734418A, “Quinazoline compounds and antihypertensives” (priority 1984, dated 1988).
Like-named read-outs stand apart in the source and are kept apart here.

Tested on: Spontaneously Hypertensive Rats
Assay: Test 1: antihypertensive effects (systolic tail artery blood pressure) and heart rate in spontaneously hypertensive rats, oral
Format: in vivo, rat (male, SHR)
Conditions: SHR, oral 1 mg/Kg; for change in vivo at 1 mg/kg: Rattus norvegicus; for Change (%) in heart rate: maximum value
Method: The antihypertensive effects of the certain compounds of this invention were studied in the following manner.
Among male, spontaneously hypertensive rats (SHRs) of 20 weeks of age or older and 350-430 g heavy all of which had developed hypertension, those having systolic blood pressures of 180 mmHg or higher were used in groups, each of which was constituted of 3-4 of the rats. […] Besides, heart rates were also measured simultaneously. The compounds were each dissolved or suspended in a 0.5% methylcellulose solution and then administered orally.
*All administered orally at a dosage of 1 mg/Kg except for the compounds
**Each percent change in heart rate is indicated by the corresponding

[1] = 1 hour, read-out: Antihypertensive effects, change (%) in blood pressure, 1 hour later
[2] = 3 hours, read-out: Antihypertensive effects, change (%) in blood pressure, 3 hours later
[3] = 6 hours, read-out: Antihypertensive effects, change (%) in blood pressure, 6 hours later
[4] = 24 hours, read-out: Antihypertensive effects, change (%) in blood pressure, 24 hours later

SMILES	change in vivo at 1 mg/kg [1] [%]	change in vivo at 1 mg/kg [2] [%]	change in vivo at 1 mg/kg [3] [%]	change in vivo at 1 mg/kg [4] [%]	Change (%) in heart rate
COc1cc2nc(N3CCN(c4ncc5c(n4)CC(c4ccccc4)NC5=O)CC3)nc(N)c2cc1OC (stereo not drawn) [Example 19]	-2.4	-10.1	-11.1	-2.9	+2.9%
CCn1ccc(=O)c2cnc(N3CCN(c4nc(N)c5cc(OC)c(OC)cc5n4)CC3)nc21 [Example 20]	1.5	-12.5	-12	-2	+5.7%
CCCN1Cc2nc(N3CCN(c4nc(N)c5cc(OC)c(OC)cc5n4)CC3)ncc2C1=O [Example 26]	-8.8	-15.2	-21.6	-4.9	+9.8%
CCCCN1Cc2nc(N3CCN(c4nc(N)c5cc(OC)c(OC)cc5n4)CC3)ncc2C1=O [Example 27]	-5.4	-17.6	-21	-2.4	+8.3%
COc1cc2nc(N3CCN(c4ncc5c(n4)CCCC(=O)N5)CC3)nc(N)c2cc1OC [Example 31]	-2.8	-8.5	-17.8	-3.8	
COc1cc2nc(N3CCN(c4ncc5c(n4)CCCC5=O)CC3)nc(N)c2cc1OC [Example 33]	-20.4	-27	-32.1	-9.7	+17.5%
COc1cc2nc(N3CCN(C4=NCc5c(ccn(C)c5=O)N4)CC3)nc(N)c2cc1OC [Example 34]	0.5	-9.1	-13.9	-7.2	+2.3%
CCn1ccc2c(c1=O)CN=C(N1CCN(c3nc(N)c4cc(OC)c(OC)cc4n3)CC1)N2 [Example 35]	-0.5	-8.7	-16.3	-15.9	+9.1%
COc1cc2nc(N3CCN(c4ncc(C(C)=O)c(C)n4)CC3)nc(N)c2cc1OC [Example 36]	-14.6	-16.5	-15	-2.4	+9.5%
CCNC(=O)c1cnc(N2CCN(c3nc(N)c4cc(OC)c(OC)cc4n3)CC2)nc1 [Example 37]	-4.7	-16.4	-21.1	-8.5	+5.8%
CCNC(=O)c1cnc(N2CCN(c3nc(N)c4cc(OC)c(OC)cc4n3)CC2)nc1CC [Example 38]	-26.6	-24.1	-27.6	-7.9	+7.9%
COc1cc2nc(N3CCN(c4ncc(C(N)=O)c(C)n4)CC3)nc(N)c2cc1OC [Example 40]	-1.4	-15.9	-18.4	-8.2	+5.8%
CCNC(=O)c1cnc(N2CCN(c3nc(N)c4cc(OC)c(OC)cc4n3)CC2)nc1C [Example 41]	-11.2	-19.5	-25.9	-3.9	+9.2%
CCN(CC)C(=O)c1cnc(N2CCN(c3nc(N)c4cc(OC)c(OC)cc4n3)CC2)nc1C [Example 42]	-16.5	-19.5	-24	-7.5	+5.2%
COc1cc2nc(N3CCN(c4ncc(C(=O)Nc5ccccc5)c(C)n4)CC3)nc(N)c2cc1OC [Example 43]	4.5	0.5	-6.5	-9.5	+5.7%
COc1cc2nc(N3CCN(c4ncc(C(=O)NCc5ccccc5)c(C)n4)CC3)nc(N)c2cc1OC [Example 44]	9.1	0	-4	0	+7.9%
COc1cc2nc(N3CCN(c4ncc(C(=O)NC5CCCCC5)c(C)n4)CC3)nc(N)c2cc1OC [Example 45]	-1.5	-2.5	-8	-5.5	+4.2%

SMILES	change in vivo at 1 mg/kg [1] [%]	change in vivo at 1 mg/kg [2] [%]	change in vivo at 1 mg/kg [3] [%]	change in vivo at 1 mg/kg [4] [%]	Change (%) in heart rate
COc1cc2nc(N3CCN(c4ncc(C(=O)N(C)C)c(C)n4)CC3)nc(N)c2cc1OC [Example 46]	0	-11.9	-17.5	-5.7	+7.4%
COc1cc2nc(N3CCN(c4ncc(C(=O)NN(C)C)c(C)n4)CC3)nc(N)c2cc1OC [Example 47]	-3.5	-9	-12.5	-2.5	+6.3%
COc1cc2nc(N3CCN(c4ncc(C(=O)NCC(F)(F)F)c(C)n4)CC3)nc(N)c2cc1OC [Example 48]	-4.5	-9	-15	-4	+6.9%
COc1cc2nc(N3CCN(c4ncc(C(=O)N5CCCC5)c(C)n4)CC3)nc(N)c2cc1OC [Example 49]	-4.5	-10.6	-13.1	-7.5	+6.3%
CCOC(=O)c1cnc(N2CCN(c3nc(N)c4cc(OC)c(OC)cc4n3)CC2)nc1O [Example 50]	-1.5		-14.6	-6.3	+2.9%
COc1cc2nc(N3CCN(c4ncc(C#N)c(O)n4)CC3)nc(N)c2cc1OC [Example 51]	8.6	0	-4.1	-2.5	+3.0%
CCN(CC)C(=O)c1cnc(N2CCN(c3nc(N)c4cc(OC)c(OC)cc4n3)CC2)nc1OC [Example 52]	-8	-13	-19.5	-3	+3.6%
CCN(CC)C(=O)c1cnc(N2CCN(c3nc(N)c4cc(OC)c(OC)cc4n3)CC2)nc1SC [Example 53]	-27.9	-31.3	-36.1	-12	+25.7%
CCOC(=O)c1cnc(N2CCN(c3nc(N)c4cc(OC)c(OC)cc4n3)CC2)nc1N [Example 54]	-4.3	-11.4	-16.7	-4.8	+5.2%
CCOC(=O)c1cnc(N2CCN(c3nc(N)c4cc(OC)c(OC)cc4n3)CC2)nc1NC [Example 55]	-6.5	-21.9	-29.9	-7.5	+7.0%
CCOC(=O)c1cnc(N2CCN(c3nc(N)c4cc(OC)c(OC)cc4n3)CC2)nc1N(C)C [Example 56]	-21.4	-22.4	-22.9	-4.5	+13.5%
CCNc1nc(N2CCN(c3nc(N)c4cc(OC)c(OC)cc4n3)CC2)ncc1C(=O)OCC [Example 57]	-10.4	-18.9	-27.9	-9	+4.3%
CCOC(=O)c1cnc(N2CCN(c3nc(N)c4cc(OC)c(OC)cc4n3)CC2)nc1N(CC)CC [Example 58]	-7.4	-17.6	-22.5	-9.8	+9.8%
CCOC(=O)c1cnc(N2CCN(c3nc(N)c4cc(OC)c(OC)cc4n3)CC2)nc1NC(C)C [Example 59]	-10.1	-23.9	-30.6	-12.4	+5.7%
CCOC(=O)c1cnc(N2CCN(c3nc(N)c4cc(OC)c(OC)cc4n3)CC2)nc1NC(C)=O [Example 60]	-1.6	-5.2	-8.8	-1	+6.0%
CCNc1nc(N2CCN(c3nc(N)c4cc(OC)c(OC)cc4n3)CC2)ncc1C(=O)OC(C)C [Example 61]	-2.4	-22	-28.2	-12	+12.4%
CCNC(=O)Cc1cnc(N2CCN(c3nc(N)c4cc(OC)c(OC)cc4n3)CC2)nc1NCC [Example 63]	3.1	-4.7	-9	-6.6	+6.8%
